pIC50: −log10 of the molar value.
How the values were obtained:
Cathepsin D = Cathepsin D (Homo sapiens, UniProt P07339); test: Inhibition of cathepsin D
[1] = Selectivity for BACE1 over cathepsin D
CHO = test: Cytotoxicity against human CHO cells; format: functional; conditions: Cricetulus griseus, read-out: LD50 (the source's name)
Beta-secretase 1 [2] = target: T1, Beta-secretase 1 (Homo sapiens, UniProt P56817); conditions: CHO
Beta-secretase 1 [3] = target: T1, Beta-secretase 1; test: Inhibition of BACE1
Beta-secretase 1 [4] = target: T1, Beta-secretase 1; test: Inhibition of BACE1 at 2 uM

T1 sequence (P56817 whole entry): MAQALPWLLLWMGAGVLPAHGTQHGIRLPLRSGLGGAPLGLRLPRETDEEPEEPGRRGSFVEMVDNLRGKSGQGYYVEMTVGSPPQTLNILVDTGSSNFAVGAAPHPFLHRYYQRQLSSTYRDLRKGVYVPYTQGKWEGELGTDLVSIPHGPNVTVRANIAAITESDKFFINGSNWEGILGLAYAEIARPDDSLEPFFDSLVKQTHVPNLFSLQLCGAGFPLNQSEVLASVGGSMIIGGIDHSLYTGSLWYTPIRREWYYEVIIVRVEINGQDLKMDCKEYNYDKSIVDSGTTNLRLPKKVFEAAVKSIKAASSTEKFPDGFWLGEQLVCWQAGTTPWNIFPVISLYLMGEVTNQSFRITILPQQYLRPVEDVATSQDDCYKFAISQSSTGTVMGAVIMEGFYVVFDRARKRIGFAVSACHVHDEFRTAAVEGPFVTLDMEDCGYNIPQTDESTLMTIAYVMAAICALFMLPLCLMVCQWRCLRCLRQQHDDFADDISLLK
Cathepsin D, sequence (P07339 65-162 limits assumed): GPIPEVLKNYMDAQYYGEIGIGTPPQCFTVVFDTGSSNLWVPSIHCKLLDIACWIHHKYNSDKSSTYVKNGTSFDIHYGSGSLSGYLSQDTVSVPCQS
Cathepsin D, sequence (P07339 169-412 limits assumed): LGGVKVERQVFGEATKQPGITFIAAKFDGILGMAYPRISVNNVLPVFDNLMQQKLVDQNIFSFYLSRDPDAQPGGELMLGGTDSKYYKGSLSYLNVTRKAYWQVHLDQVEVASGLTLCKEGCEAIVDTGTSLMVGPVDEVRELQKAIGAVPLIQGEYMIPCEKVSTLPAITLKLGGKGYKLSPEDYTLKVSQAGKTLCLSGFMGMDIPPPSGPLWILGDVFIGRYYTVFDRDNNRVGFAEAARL

Structure (SMILES)	pIC50 (Cathepsin D)	pIC50 (Beta-secretase 1 [3])	inhibition (Beta-secretase 1 [4]) [%]	Ratio IC50 [1]	CC50 (CHO) [µM]	ED50 (Beta-secretase 1 [2]) [µM]
NC(N)=NC(=O)Cn1c(-c2ccccc2)ccc1C12CC3CC(CC(C3)C1)C2	4.60			69	> 25	8.9
C[C@@H](O)CN/C(N)=N\C(=O)Cn1c(-c2ccccc2)ccc1C12CC3CC(CC(C3)C1)C2	4.90	6.36		28	79	9.51
CCCOc1ccc(-c2ccc(-c3ccccc3Cl)n2CC(=O)NC(=N)NCc2ccc(F)c(F)c2F)cc1		6.69				
N/C(=N/C(=O)Cn1c(-c2ccccc2)ccc1C12CC3CC(CC(C3)C1)C2)NC1CCCCC1				7.5	50	18.7
CCCOc1ccc(-c2ccc(-c3ccccc3Cl)n2CC(=O)/N=C(/N)NCCC(=O)O)cc1				> 45		
CCCOc1ccc(-c2ccc(-c3ccccc3Cl)n2CC(=O)/N=C(/N)NCCCO)cc1				85		1.18
Cc1csc(CN/C(N)=N\C(=O)Cn2c(-c3ccccc3)ccc2C23CC4CC(CC(C4)C2)C3)n1					8	3.97
N=C(NC(=O)Cn1c(-c2ccccc2)ccc1C12CC3CC(CC(C3)C1)C2)NC1CCCCC1	4.27	5.14				
CCCOc1ccc(-c2ccc(-c3ccccc3Cl)n2CC(=O)/N=C(/N)NCc2ccco2)cc1				2.5		9.1
N#CCCN/C(N)=N\C(=O)Cn1c(-c2ccccc2)ccc1C12CC3CC(CC(C3)C1)C2	4.91	6.51		39	16	3.44
CCCOc1ccc(-c2ccc(-c3ccccc3Cl)n2CC(=O)/N=C(/N)NCCC2OCCO2)cc1		6.57		13		1.34
N/C(=N/C(=O)Cn1c(-c2ccccc2)ccc1C12CC3CC(CC(C3)C1)C2)N[C@H]1CC[C@H](O)CC1		6.55			14	1.44
CCCOc1ccc(-c2ccc(-c3ccccc3Cl)n2CC(=O)/N=C(/N)NCCC(N)=O)cc1				55		
CCCOc1ccc(-c2ccc(-c3ccccc3Cl)n2CC(=O)/N=C(/N)NCc2ccc(F)c(F)c2F)cc1				0.5		5.27
CCCOc1ccc(-c2ccc(-c3ccccc3Cl)n2CC(=O)/N=C(/N)N[C@H]2CC[C@H](C(=O)O)CC2)cc1		7.11		7.3		10.4
CCCOc1ccc(-c2ccc(-c3ccccc3Cl)n2CC(=O)NC(=N)NCCCO)cc1		6.92				

Structure (SMILES)	pIC50 (Cathepsin D)	pIC50 (Beta-secretase 1 [3])	inhibition (Beta-secretase 1 [4]) [%]	Ratio IC50 [1]	CC50 (CHO) [µM]	ED50 (Beta-secretase 1 [2]) [µM]
CCCOc1ccc(-c2ccc(-c3ccccc3Cl)n2CC(=O)/N=C(/N)NCc2cccs2)cc1		6.12		0.7		10.7
C[C@H](O)CN/C(N)=N\C(=O)Cn1c(-c2ccccc2)ccc1C12CC3CC(CC(C3)C1)C2				57	100	17.8
N/C(=N/C(=O)Cn1c(-c2ccccc2)ccc1C12CC3CC(CC(C3)C1)C2)NCCO	4.61	6.17		36	25	3.62
N/C(=N/C(=O)Cn1c(-c2ccccc2)ccc1C12CC3CC(CC(C3)C1)C2)NCc1cccc(N)c1				1.9	8	4.81
N/C(=N/C(=O)Cn1c(-c2ccccc2)ccc1C12CC3CC(CC(C3)C1)C2)NCCCO	4.70			83	35	1.84
N/C(=N/C(=O)Cn1c(-c2ccccc2)ccc1C12CC3CC(CC(C3)C1)C2)NCCCn1ccnc1				> 15	45	9.16
N/C(=N/C(=O)Cn1c(-c2ccccc2)ccc1C12CC3CC(CC(C3)C1)C2)NCCCCO				25	31	4.15
N/C(=N/C(=O)Cn1c(-c2ccccc2)ccc1C12CC3CC(CC(C3)C1)C2)NCCc1ccsc1					2	1.69
N/C(=N/C(=O)Cn1c(-c2ccccc2)ccc1C12CC3CC(CC(C3)C1)C2)NCC(O)CO (centres undefined)				137	88	21.1
CCCOc1ccc(-c2ccc(-c3ccccc3Cl)n2CC(=O)NC(=N)NCc2ccco2)cc1		6.25				
Cc1nnc(CN/C(N)=N\C(=O)Cn2c(-c3ccccc3)ccc2C23CC4CC(CC(C4)C2)C3)o1	5.52				22	9.48
N#CCCCNC(=N)NC(=O)Cn1c(-c2ccccc2)ccc1C12CC3CC(CC(C3)C1)C2	5.37	6.59				
N#CCCCN/C(N)=N\C(=O)Cn1c(-c2ccccc2)ccc1C12CC3CC(CC(C3)C1)C2				17	59	4.4
N/C(=N/C(=O)Cn1c(-c2ccccc2)ccc1C12CC3CC(CC(C3)C1)C2)NCCc1cccs1	6.32				3	2
CCCOc1ccc(-c2ccc(-c3ccccc3Cl)n2CC(=O)/N=C(/N)NCCCn2ccnc2)cc1		6.62		30		3.1

Continued, in another order:

pIC50 (Cathepsin D)	pIC50 (Beta-secretase 1 [3])	inhibition (Beta-secretase 1 [4]) [%]	Structure (SMILES)	Ratio IC50 [1]	CC50 (CHO) [µM]	ED50 (Beta-secretase 1 [2]) [µM]
6.22			N=C(NCCc1ccsc1)NC(=O)Cn1c(-c2ccccc2)ccc1C12CC3CC(CC(C3)C1)C2			
	6.90		CCCOc1ccc(-c2ccc(-c3ccccc3Cl)n2CC(=O)/N=C(/N)N[C@H]2CC[C@H](O)CC2)cc1	110		1.28
	6.76		CCCOc1ccc(-c2ccc(-c3ccccc3Cl)n2CC(=O)NC(=N)NCCC(N)=O)cc1			
4.27	6.03		C[C@H](O)CNC(=N)NC(=O)Cn1c(-c2ccccc2)ccc1C12CC3CC(CC(C3)C1)C2			
	6.19		CCCOc1ccc(-c2ccc(-c3ccccc3Cl)n2CC(=O)/N=C(/N)NCc2ccc(O)c(OC)c2)cc1	1		5.45
4.13	6.27		N=C(NCC(O)CO)NC(=O)Cn1c(-c2ccccc2)ccc1C12CC3CC(CC(C3)C1)C2 (centres undefined)			
		43	N/C(=N\C(=O)Cn1c(-c2ccccc2)ccc1-c1ccccc1)NCc1ccc(F)c(F)c1F			
	6.89		CCCOc1ccc(-c2ccc(-c3ccccc3Cl)n2CC(=O)/N=C(/N)NCCCC(=O)O)cc1	45		
5.19	6.59		N/C(=N\C(=O)Cn1c(-c2ccccc2)ccc1C12CC3CC(CC(C3)C1)C2)NCCCCO			
	6.91		CCCOc1ccc(-c2ccc(-c3ccccc3Cl)n2CC(=O)/N=C(/N)NCC(O)CO)cc1 (centres undefined)	81		5.27
6.84			Cc1csc(CNC(=N)NC(=O)Cn2c(-c3ccccc3)ccc2C23CC4CC(CC(C4)C2)C3)n1			
	6.56		CCCOc1ccc(-c2ccc(-c3ccccc3Cl)n2CC(=O)NC(=N)NCCC(=O)O)cc1			
< 4.60	5.77		N=C(NCCCn1ccnc1)NC(=O)Cn1c(-c2ccccc2)ccc1C12CC3CC(CC(C3)C1)C2			
	6.69		CCCOc1ccc(-c2ccc(-c3ccccc3Cl)n2CC(=O)/N=C(/N)NCC(C)(C)CO)cc1	15		5.27
5.86	6.13		N=C(NCc1cccc(N)c1)NC(=O)Cn1c(-c2ccccc2)ccc1C12CC3CC(CC(C3)C1)C2			
	6.49		CCCOc1ccc(-c2ccc(-c3ccccc3Cl)n2CC(=O)/N=C(/N)NCCCSC)cc1	3.9		1.23
	6.86		CCCOc1ccc(-c2ccc(-c3ccccc3Cl)n2CC(=O)/N=C(/N)NCCCC(N)=O)cc1	70		4.14

Reference: ChEMBL document CHEMBL1142260, “Acylguanidine inhibitors of beta-secretase: optimization of the pyrrole ring substituents extending into the S1' substrate binding pocket” (Bioorg Med Chem Lett, 2008)
